Laboratory results from patent US10954252B1, “Inhibitors of human immunodeficiency virus replication” (ViiV HEALTHCARE UK (NO.5) LIMITED, priority 2017, dated 2021).

Columns and labels:
[1] = Compound cytotoxicity, XTT-based colorimetric assay; type: cell-based; conditions: human, uninfected MT2 cells, Table 1, day 4, XTT
Procedure, shortened: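 CC50 from uninfected MT2 cells run under the antiviral-assay protocol without virus. Viability read on day 4 by XTT colorimetric assay.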

[2] = test system: recombinant NL4-3 virus (nef section replaced with Renilla luciferase gene) in MT-2 cells; assay: HIV cell culture assay (antiviral activity, luciferase readout); type: cell-based; conditions: Renilla, NL43, Table 1; MT-2 cells infected for 4-5 days with recombinant NL4-3 luciferase virus
Procedure, shortened: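 NL4-3 reporter virus carrying Renilla luciferase in place of part of nef, produced in 293T cells, was used to infect MT-2 cells for 4-5 days with serial compound dilutions. Luciferase activity was read with a live-cell substrate; EC50 derived from the median effect equation.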

SMILES | CC50 at 4 days [1] [nM] | EC50 [2] [nM]
O=C(Cn1nc(C(F)F)c2c1C(F)(F)[C@@H]1C[C@H]21)N[C@@H](Cc1cc(F)cc(F)c1)c1nc2cn[nH]c2cc1-c1ccc(Cl)c(C(=O)NS(=O)(=O)C2CC2)c1 [Example 10.16, 2-Chloro-N-(cyclopropylsulfonyl)-5-(5-((S)-1-(2-((3bS,4aR)-3-(difluoromethyl)-5,5-difluoro-3b,4,4a,5-tetrahydro-1H-cyclopropa[3,4]cyclopenta[1,2-c]pyrazol-1-yl)acetamido)-2-(3,5-difluorophenyl)ethyl)-1H-pyrazolo[4,3-b]pyridin-6-yl)benzamide] | > 10000 | 340
Cn1nc(NS(C)(=O)=O)c2c(Cl)ccc(-c3cc4ccccc4nc3[C@H](Cc3cc(F)cc(F)c3)NC(=O)Cc3c[nH]c4ccc(O)cc34)c21 [Example 10.17] | > 10000 | 2.4
CS(=O)(=O)NC(=O)c1cc(-c2cc3[nH]ncc3nc2[C@H](Cc2cc(F)cc(F)c2)NC(=O)Cn2nc(C(F)F)c3c2C(F)(F)[C@@H]2C[C@H]32)ccc1Cl [Example 10.18, 2-Chloro-5-(5-((S)-1-(2-((3bS,4aR)-3-(difluoromethyl)-5,5-difluoro-3b,4,4a,5-tetrahydro-1H-cyclopropa[3,4]cyclopenta[1,2-c]pyrazol-1-yl)acetamido)-2-(3,5-difluorophenyl)ethyl)-1H-pyrazolo[4,3-b]pyridin-6-yl)-N-(methylsulfonyl)benzamide] | > 10000 | 670
CC(C)S(=O)(=O)NC(=O)c1cc(-c2cc3[nH]ncc3nc2[C@H](Cc2cc(F)cc(F)c2)NC(=O)Cn2nc(C(F)F)c3c2C(F)(F)[C@@H]2C[C@H]32)ccc1Cl [Example 10.19, 2-chloro-5-(5-((S)-1-(2-((3bS,4aR)-3-(difluoromethyl)-5,5-difluoro-3b,4,4a,5-tetrahydro-1H-cyclopropa[3,4]cyclopenta[1,2-c]pyrazol-1-yl)acetamido)-2-(3,5-difluorophenyl)ethyl)-1H-pyrazolo[4,3-b]pyridin-6-yl)-N-(isopropylsulfonyl)benzamide] | > 10000 | 220
CC1(S(=O)(=O)NC(=O)c2cc(-c3cc4[nH]ncc4nc3[C@H](Cc3cc(F)cc(F)c3)NC(=O)Cn3nc(C(F)F)c4c3C(F)(F)[C@@H]3C[C@H]43)ccc2Cl)CC1 [Example 10.20, 2-Chloro-5-(5-((S)-1-(2-((3bS,4aR)-3-(difluoromethyl)-5,5-difluoro-3b,4,4a,5-tetrahydro-1H-cyclopropa[3,4]cyclopenta[1,2-c]pyrazol-1-yl)acetamido)-2-(3,5-difluorophenyl)ethyl)-1H-pyrazolo[4,3-b]pyridin-6-yl)-N-((1-methylcyclopropyl)sulfonyl)benzamide] | > 10000 | 290
O=C(Cn1nc(C(F)F)c2c1C(F)(F)[C@@H]1C[C@H]21)N[C@@H](Cc1cc(F)cc(F)c1)c1nc2cn[nH]c2cc1-c1ccc(Cl)c(C(=O)NS(=O)(=O)C2CCCC2)c1 [Example 10.21, 2-Chloro-N-(cyclopentylsulfonyl)-5-(5-((S)-1-(2-((3bS,4aR)-3-(difluoromethyl)-5,5-difluoro-3b,4,4a,5-tetrahydro-1H-cyclopropa[3,4]cyclopenta[1,2-c]pyrazol-1-yl)acetamido)-2-(3,5-difluorophenyl)ethyl)-1H-pyrazolo[4,3-b]pyridin-6-yl)benzamide] | > 10000 | 240
Cn1nc(NS(C)(=O)=O)c2c(Cl)ccc(-c3cc4[nH]ncc4nc3[C@H](Cc3cc(F)cc(F)c3)NC(=O)Cc3c[nH]c4ccc(O)cc34)c21 [Example 10.22] | > 10000 | 22
O=C(Cc1c[nH]c2ccc(O)cc12)N[C@@H](Cc1cc(F)cc(F)c1)c1nc2ncccc2c(=O)n1-c1ccc2scnc2c1 [Example 10.23] | > 10000 | 2.7
O=C(Cn1nc(C(F)F)c2c1C(F)(F)[C@@H]1C[C@H]21)N[C@@H](Cc1cc(F)cc(F)c1)c1nc2ncccc2c(=O)n1-c1ccc2scnc2c1 [Example 10.24] | > 10000 | 1.7
O=C(Cn1nc(C(F)F)c2c1C(F)(F)[C@@H]1C[C@H]21)N[C@@H](Cc1cc(F)cc(F)c1)c1nc2cn[nH]c2cc1-c1ccc(F)c(C(=O)O)c1 [Example 10.25, 5-(5-((S)-1-(2-((3bS,4aR)-3-(difluoromethyl)-5,5-difluoro-3b,4,4a,5-tetrahydro-1H-cyclopropa[3,4]cyclopenta[1,2-c]pyrazol-1-yl)acetamido)-2-(3,5-difluorophenyl)ethyl)-1H-pyrazolo[4,3-b]pyridin-6-yl)-2-fluorobenzoic acid] | > 10000 | 580
CS(=O)(=O)NC(=O)c1cc(-c2cc3[nH]ncc3nc2[C@H](Cc2cc(F)cc(F)c2)NC(=O)Cn2nc(C(F)F)c3c2C(F)(F)[C@@H]2C[C@H]32)ccc1F [Example 10.26, 5-(5-((S)-1-(2-((3bS,4aR)-3-(difluoromethyl)-5,5-difluoro-3b,4,4a,5-tetrahydro-1H-cyclopropa[3,4]cyclopenta[1,2-c]pyrazol-1-yl)acetamido)-2-(3,5-difluorophenyl)ethyl)-1H-pyrazolo[4,3-b]pyridin-6-yl)-2-fluoro-N-(methylsulfonyl)benzamide] | > 10000 | 930
CC(C)S(=O)(=O)NC(=O)c1cc(-c2cc3[nH]ncc3nc2[C@H](Cc2cc(F)cc(F)c2)NC(=O)Cn2nc(C(F)F)c3c2C(F)(F)[C@@H]2C[C@H]32)ccc1F [Example 10.27, 5-(5-((S)-1-(2-((3bS,4aR)-3-(difluoromethyl)-5,5-difluoro-3b,4,4a,5-tetrahydro-1H-cyclopropa[3,4]cyclopenta[1,2-c]pyrazol-1-yl)acetamido)-2-(3,5-difluorophenyl)ethyl)-1H-pyrazolo[4,3-b]pyridin-6-yl)-2-fluoro-N-(isopropylsulfonyl)benzamide] | > 10000 | 820
O=C(Cn1nc(C(F)F)c2c1C(F)(F)[C@@H]1C[C@H]21)N[C@@H](Cc1cc(F)cc(F)c1)c1nc2cn[nH]c2cc1-c1ccc(F)c(C(=O)NS(=O)(=O)C2CC2)c1 [Example 10.28, N-(cyclopropylsulfonyl)-5-(5-((S)-1-(2-((3bS,4aR)-3-(difluoromethyl)-5,5-difluoro-3b,4,4a,5-tetrahydro-1H-cyclopropa[3,4]cyclopenta[1,2-c]pyrazol-1-yl)acetamido)-2-(3,5-difluorophenyl)ethyl)-1H-pyrazolo[4,3-b]pyridin-6-yl)-2-fluorobenzamide] | > 10000 | 510
COc1ccc(-n2c([C@H](Cc3cc(F)cc(F)c3)NC(=O)Cc3c[nH]c4ccc(O)cc34)nc3ccccc3c2=O)cc1 [Example 10.30] | > 10000 | 8
COc1ccc(-n2c([C@H](Cc3cc(F)cc(F)c3)NC(=O)Cn3nc(C(F)F)c4c3C(F)(F)[C@@H]3C[C@H]43)nc3ccccc3c2=O)cc1 [Example 10.31] | > 10000 | 18
CC(C)c1ccc(-c2c([C@H](Cc3cc(F)cc(F)c3)NC(=O)Cn3nc(C(F)F)c4c3C(F)(F)[C@@H]3C[C@H]43)nc3ncnn3c2N)cn1 [Example 10.32, N—((S)-1-(7-amino-6-(6-isopropylpyridin-3-yl)-[1,2,4]triazolo[1,5-a]pyrimidin-5-yl)-2-(3,5-difluorophenyl)ethyl)-2-((3bS,4aR)-3-(difluoromethyl)-5,5-difluoro-3b,4,4a,5-tetrahydro-1H-cyclopropa[3,4]cyclopenta[1,2-c]pyrazol-1-yl)acetamide] | > 10000 | 54
CC(C)c1ccc(-n2c([C@H](Cc3cc(F)cc(F)c3)NC(=O)Cc3c[nH]c4ccc(O)cc34)nc3ccccc3c2=O)cn1 [Example 10.33] | > 10000 | 49
CC(C)c1ccc(-n2c([C@H](Cc3cc(F)cc(F)c3)NC(=O)Cn3nc(C(F)F)c4c3C(F)(F)[C@@H]3C[C@H]43)nc3ccccc3c2=O)cn1 [Example 10.34] | 7900 | 15
CC(C)c1ccc(-n2c([C@H](Cc3cc(F)cc(F)c3)NC(=O)Cn3nc(C(F)F)c4c3C(F)(F)[C@@H]3C[C@H]43)nc3ncccc3c2=O)cc1 [Example 10.35] | 1900 | 1.7
O=C(Cn1nc(C(F)F)c2c1C(F)(F)[C@@H]1C[C@H]21)N[C@@H](Cc1cc(F)cc(F)c1)c1nc2cn[nH]c2cc1-c1ccc2ccnn2c1 [Example 10.36, 2-((3bS,4aR)-3-(difluoromethyl)-5,5-difluoro-3b,4,4a,5-tetrahydro-1H-cyclopropa[3,4]cyclopenta[1,2-c]pyrazol-1-yl)-N—((S)-2-(3,5-difluorophenyl)-1-(6-(pyrazolo[1,5-a]pyridin-6-yl)-1H-pyrazolo[4,3-b]pyridin-5-yl)ethyl)acetamide] | > 10000 | 80
CC(C)c1ccc(-n2c([C@H](Cc3cc(F)cc(F)c3)NC(=O)Cn3nc(C(F)F)c4c3C(F)(F)[C@@H]3C[C@H]43)nc3ncccc3c2=O)cn1 [Example 10.37] | 6900 | 4.8
O=C(Cn1nc(C(F)F)c2c1C(F)(F)[C@@H]1C[C@H]21)N[C@@H](Cc1cc(F)cc(F)c1)c1nc2ncccc2c(=O)n1-c1ccc(S(=O)(=O)N2CCOCC2)cc1 [Example 10.38] | > 10000 | 0.204
Cn1nc(NS(C)(=O)=O)c2c(Cl)ccc(-n3c([C@H](Cc4cc(F)cc(F)c4)NC(=O)Cn4ccc(C5CC5)n4)nc4ncccc4c3=O)c21 [Example 15, (S)—N-(1-(3-(4-chloro-1-methyl-3-(methylsulfonamido)-1H-indazol-7-yl)-4-oxo-3,4-dihydropyrido[2,3-d]pyrimidin-2-yl)-2-(3,5-difluorophenyl)ethyl)-2-(3-cyclopropyl-1H-pyrazol-1-yl)acetamide] | > 1000 | 320
